Results taken from PubChem BioAssay (NCI).
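These data come from cells grown in 96-well plates and exposed to compound for 48 hours at five concentrations. GI50: concentration for 50% inhibition of growth. TGI denotes the concentration required for complete inhibition of growth.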

Experiments:
Assay in all cases: growth of human tumour cells (NCI), 48 h
UACC-62 melanoma = tested on: UACC-62 melanoma
MOLT-4 leukemia = tested on: MOLT-4 leukemia
DU-145 prostate = tested on: DU-145 prostate
T-47D breast = tested on: T-47D breast
SK-MEL-2 melanoma = tested on: SK-MEL-2 melanoma
A549 NSCLC = tested on: A549 NSCLC
OVCAR-8 ovarian = tested on: OVCAR-8 ovarian
CAKI-1 renal = tested on: CAKI-1 renal
OVCAR-5 ovarian = tested on: OVCAR-5 ovarian
HL-60(TB) leukemia = tested on: HL-60(TB) leukemia

SMILES | GI50 (UACC-62 melanoma) [µM] | TGI (UACC-62 melanoma) [µM] | GI50 (MOLT-4 leukemia) [µM] | TGI (MOLT-4 leukemia) [µM] | GI50 (DU-145 prostate) [µM] | TGI (DU-145 prostate) [µM] | GI50 (T-47D breast) [µM] | TGI (T-47D breast) [µM] | GI50 (SK-MEL-2 melanoma) [µM] | TGI (SK-MEL-2 melanoma) [µM] | GI50 (A549 NSCLC) [µM] | TGI (A549 NSCLC) [µM] | GI50 (OVCAR-8 ovarian) [µM] | TGI (OVCAR-8 ovarian) [µM] | GI50 (CAKI-1 renal) [µM] | TGI (CAKI-1 renal) [µM] | GI50 (OVCAR-5 ovarian) [µM] | TGI (OVCAR-5 ovarian) [µM] | GI50 (HL-60(TB) leukemia) [µM] | TGI (HL-60(TB) leukemia) [µM]
COc1ccc(C2=Nn3c(nnc3-c3ccc(F)c(Cl)c3)SC2)cc1 | > 100 | > 100 | > 100 | > 100 | > 100 | > 100 | > 100 | > 100 | > 100 | > 100 | > 100 | > 100 | > 100 | > 100 | > 100 | > 100 | 84.6 | > 100 | > 100 | > 100
O=C1/C(=C/c2ccc(F)cc2)COc2ccc(O)c(O)c21 | 2.1 | 6.98 | 1.37 | > 100 | 3.02 | 43.6 | 2.4 | 9.67 | 4.61 | 47.5 | 3.32 | > 100 | 2.16 | > 100 | 1.65 | 5.61 | 3 | 8.99 | 0.604 | 3.89
CC(=O)c1cc2c(Br)cccc2oc1=O | – | > 100 | – | > 100 | – | > 100 | – | > 100 | – | > 100 | – | > 100 | – | > 100 | – | > 100 | – | > 100 | – | > 100
O=C(CCN1CCCC1)Nc1ccc2c(Nc3ccc(F)cc3)c3ccccc3nc2c1 | 1.55 | 3.1 | 0.133 | 3.02 | 0.513 | 2.03 | 1.01 | 3.79 | 1.85 | 3.64 | 0.424 | 3.62 | 1.56 | 8.73 | 1.26 | 2.6 | 1.95 | 4.7 | 1.51 | 3.75
COC(=O)NC1(NC(=O)OC)NC(=O)c2ccccc2N1 | – | > 100 | – | > 100 | – | > 100 | – | > 100 | – | > 100 | – | > 100 | – | > 100 | – | > 100 | – | > 100 | – | > 100
Nc1c(C(=O)c2cccc(-c3cccnc3)c2)cnn1-c1ccc(F)cc1 | > 25 | > 25 | > 25 | > 25 | > 25 | > 25 | > 25 | > 25 | > 25 | > 25 | > 25 | > 25 | > 13.9 | > 25 | > 25 | > 25 | > 25 | > 25 | > 25 | > 25
O=C1OC(c2ccc([N+](=O)[O-])cc2)=N/C1=C\c1ccc(Cl)cc1 | – | > 100 | – | > 100 | – | > 100 | – | > 100 | – | > 100 | – | > 100 | – | > 100 | – | > 100 | – | > 100 | – | > 100
C[C@H]1C[C@@H](n2c(Nc3ccc(OC(F)(F)F)cc3)nc3cc(CCC(=O)O)ccc32)CC(C)(C)C1 | 4.91 | 17.7 | 9.37 | 32.6 | 13.8 | 27.2 | 14.3 | 44.5 | 15 | 34.6 | 11.1 | 30.2 | 13.2 | 35.1 | 15.4 | 28.8 | 17 | 31.5 | 10.3 | 29.1
